Counter-ions that a name gives are not always drawn.
Key:
HCT-116 cells = assay: Nude mouse xenograft model, HCT-116 (s.c.); format: in vivo, nude mice; conditions: HCT-116 xenograft; i.p. 75 mpk/day
From the text: Anti-tumor activity in nude mouse xenograft model—Female athymic nude (nu/nu) mice, 5-6 weeks old, were purchased from Charles River (Wilmington, Mass.) and allowed to acclimate in the animal facility for one week. After harvesting, A-549, SNB-19, ACHN, and HCT-116 cells were, resuspended in sterile PBS, and injected s.c. into the right and left flanks (10×10^6 cells per flank) of the mice as previously described (Sun et al., 2005). For MDA-MB-231, cells were harvested and resuspended in PBS (10×10^6 cells per 50 μl) and an equal volume of Matrigel (BD Biosciences, San Jose, Calif.). 100 μl of MDA-MB-231 cells in PBS/Matrigel were injected s.c. into the mammary fat pads between the 2nd and 3rd nipples on each side of the mice. Once the tumors reached approximately 200-300 mm^3 the mice were randomized and treated i.p. with 0.1 ml vehicle (PBS) or ARA-211. Each treatment group consisted of five mice (2 tumors per mouse, a total of 10 tumors). The tumor volumes were determined by measuring the length (l) and width (w) and calculating the volume (V=w^2l/2). Statistical significance between the control and treated animals was determined using a student's t test.

SNB-19 cells = assay: Anchorage-dependent growth (MTT assay), SNB-19; format: cell-based, human; conditions: n = 3
Method: MTT Assay—2000 cells per well were plated into 96 well tissue culture plates, and the cells were allowed to attach overnight at 37° C. with 10% CO2. Cells were then treated with increasing concentrations of ARA-211, or vehicle (DMSO) and incubated for four days. At that time treatment medium was removed and replaced with 100 μl of lmg/ml MTT (Sigma-Aldrich, St. Louis, Mo.) in media and incubated at 37° C., 10% CO2 for 3 hours. After 3 hours the MTT media was removed and replaced with 100 μl/well of DMSO, rocked at room temperature for 5 minutes, then absorbance read at 540 nm on a micro-plate reader.

With `CC(C)(C)NCC(O)c1ccc(O)c(CO)n1` (centres unmarked) [ARA-211, 2-hydroxymethyl-3-hydroxy-6-(1-hydroxy-2-tert-butylaminoethyl) pyridine, dihydrochloride] the growth of tumors (HCT-116 cells) was “is not affected” and the “Anchorage Dependent Growth (% Inhibition)” value (SNB-19 cells) was 0 (n = 3) %.

Source: patent US7713960B2, “Inhibition of the Raf/Mek/P-Erk pathway for treating cancer” (University of South Florida, priority 2005, dated 2010)
